How the values were obtained:
PKR R510Q = PKR R510Q (Homo sapiens, UniProt P30613, R510Q); assay: PKR Mutant Assay, AC50 against PKR R510Q; type: biochemical; details: mutant PKR R510Q enzyme
In short: (§1)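 Human PKR mutant enzyme (80-400 ng/well) was preincubated 60 min at room temperature with compound (11-point, 3-fold series from 100 μM top, 1% DMSO) in 100 mM KCl, 50 mM Tris pH 7.5, 5 mM MgCl2, 1 mM DTT, 0.03% BSA. ADP (0.22-1.65 mM) started the reaction, with PEP 0.1-0.5 mM.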

PKR WT [1] = target: T1, PKR WT (Homo sapiens, UniProt P30613); assay: PKR WT cell based AC50 assay; details: wild type PKR
PKR WT [2] = target: T1, PKR WT; assay: PKR WT enzymatic AC50 assay; type: biochemical; details: wild type PKR
In short: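 Steps: compound added to wells, then reaction mix lacking ADP; 60 min room-temperature hold; ADP (0.22-1.65 mM) added to start; A340 monitored at room temperature via PEP/LDH/NADH coupling. Top final compound concentration 100 μM, 3-fold dilutions over 11 points.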

PKR R532W = PKR R532W (Homo sapiens, UniProt P30613, R532W); assay: PKR Mutant Assay, AC50 against PKR R532W; type: biochemical; details: mutant PKR R532W enzyme
In short: as §1

T1 sequence (P30613 whole entry): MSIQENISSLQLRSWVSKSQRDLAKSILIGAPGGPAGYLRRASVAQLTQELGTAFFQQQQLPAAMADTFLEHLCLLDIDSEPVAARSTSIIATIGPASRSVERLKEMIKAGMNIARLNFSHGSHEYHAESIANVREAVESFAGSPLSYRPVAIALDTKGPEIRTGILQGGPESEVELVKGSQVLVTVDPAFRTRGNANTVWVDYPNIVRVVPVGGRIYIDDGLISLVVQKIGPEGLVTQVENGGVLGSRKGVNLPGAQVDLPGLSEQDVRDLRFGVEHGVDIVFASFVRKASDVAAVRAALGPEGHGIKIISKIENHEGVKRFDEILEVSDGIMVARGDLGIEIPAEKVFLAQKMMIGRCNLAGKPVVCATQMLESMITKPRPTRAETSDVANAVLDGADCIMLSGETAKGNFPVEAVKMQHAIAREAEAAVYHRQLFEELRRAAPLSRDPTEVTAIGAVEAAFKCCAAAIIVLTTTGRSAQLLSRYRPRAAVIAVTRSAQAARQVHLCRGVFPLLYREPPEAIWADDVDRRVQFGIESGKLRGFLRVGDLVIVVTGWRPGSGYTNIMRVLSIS
Sequence of PKR R510Q (P30613 whole entry R510Q): as the sequence (P30613 whole entry) above, with R510Q counted along it
Sequence of PKR R532W (P30613 whole entry R532W): as the sequence (P30613 whole entry) above, with R532W counted along it

Row | SMILES | AC50 (PKR R510Q) [nM] | AC50 (PKR WT [1]) [nM] | AC50 (PKR WT [2]) [nM] | AC50 (PKR R532W) [nM]
1 | O=C(c1ccc(NS(=O)(=O)c2cccc3cccnc23)cc1)N1CCC(O)(c2ccncc2)CC1 [Compound 206, N-(4-(4-hydroxy-4-(pyridin-4-yl)piperidine-1-carbonyl)phenyl)quinoline-8-sulfonamide] | 1010 to 10000 | < 100 | < 100 | < 100
2 | N#Cc1cc(NS(=O)(=O)c2cccc3cccnc23)ccc1C(=O)N1CCC(O)(c2ccccc2Cl)CC1 [Compound 209] | 101 to 1000 | < 100 | < 100 | < 100
3 | Cc1nc(C(=O)N2CCC(O)(c3ccccc3Cl)CC2)ccc1NS(=O)(=O)c1cccc2cccnc12 [Compound 210, N-(6-(4-(2-chlorophenyl)-4-hydroxypiperidine-1-carbonyl)-2-methylpyridin-3-yl)quinoline-8-sulfonamide] | 101 to 1000 | 101 to 1000 | < 100 | < 100
4 | COc1ncccc1C1(O)CCN(C(=O)c2ccc(NS(=O)(=O)c3cccc4cccnc34)cc2)CC1 [Compound 211, N-(4-(4-hydroxy-4-(2-methoxypyridin-3-yl)piperidine-1-carbonyl)phenyl)quinoline-8-sulfonamide] | 101 to 1000 | 101 to 1000 | < 100 | < 100
5 | O=C(c1ccc(NS(=O)(=O)c2cccc3scnc23)cc1)N1CCC(O)(CC2CCC2)CC1 [Compound 212, N-(4-(4-(cyclobutylmethyl)-4-hydroxypiperidine-1-carbonyl)phenyl)benzo[d]thiazole-4-sulfonamide] | 101 to 1000 | < 100 | < 100 | < 100
6 | O=C(c1ccc(NS(=O)(=O)c2cccc3scnc23)cc1)N1CCC(O)(c2ccccc2C(F)F)CC1 [Compound 215, N-(4-(4-(2-(difluoromethyl)phenyl)-4-hydroxypiperidine-1-carbonyl)phenyl)benzo[d]thiazole-4-sulfonamide] | 101 to 1000 | 101 to 1000 | < 100 | < 100
7 | O=C(c1ccc(NS(=O)(=O)c2cccc3cc(F)cnc23)cc1)N1CCC(O)(c2ccccc2)CC1 [Compound 218, 3-fluoro-N-(4-(4-hydroxy-4-phenylpiperidine-1-carbonyl)phenyl)quinoline-8-sulfonamide] | 101 to 1000 | < 100 | < 100 | < 100
8 | Cc1cc(C(=O)N2CCC(O)(c3cccc(F)c3F)CC2)ccc1NS(=O)(=O)c1ccc(F)c2cccnc12 [Compound 220, N-(4-(4-(2,3-difluorophenyl)-4-hydroxypiperidine-1-carbonyl)-2-methylphenyl)-5-fluoroquinoline-8-sulfonamide] | 101 to 1000 | 1010 to 10000 | < 100 | < 100
9 | O=C(c1ccc(NS(=O)(=O)c2cccc3cccnc23)c(Cl)c1)N1CCC(O)(c2ccccc2Cl)CC1 [Compound 222, N-(2-chloro-4-(4-(2-chlorophenyl)-4-hydroxypiperidine-1-carbonyl)phenyl)quinoline-8-sulfonamide] | 101 to 1000 | < 100 | < 100 | < 100
10 | O=C(c1ccc(NS(=O)(=O)c2cc(F)cc3cccnc23)cc1)N1CCC(O)(c2ccccc2Cl)CC1 [Compound 223, N-(4-(4-(2-chlorophenyl)-4-hydroxypiperidine-1-carbonyl)phenyl)-6-fluoroquinoline-8-sulfonamide] | 101 to 1000 | 101 to 1000 | < 100 | < 100
11 | O=C(c1ccc(NS(=O)(=O)c2cccc3ccc(F)nc23)cc1)N1CCC(O)(c2ccccc2Cl)CC1 [Compound 224, N-(4-(4-(2-chlorophenyl)-4-hydroxypiperidine-1-carbonyl)phenyl)-2-fluoroquinoline-8-sulfonamide] | 1010 to 10000 | 101 to 1000 | < 100 | < 100
12 | O=C(c1ccc(NS(=O)(=O)c2cccc3cccnc23)c2ccccc12)N1CCC(O)(c2ccccc2Cl)CC1 [Compound 226, N-(4-(4-(2-chlorophenyl)-4-hydroxypiperidine-1-carbonyl)naphthalen-1-yl)quinoline-8-sulfonamide] | 101 to 1000 | 101 to 1000 | < 100 | < 100
13 | O=C(c1ccc(NS(=O)(=O)c2cccc3cccnc23)cc1)N1CCC(O)(c2ccccc2O)CC1 [Compound 228, N-[4-[4-hydroxy-4-(2-hydroxyphenyl)piperidine-1-carbonyl]phenyl]quinoline-8-sulfonamide] | 1010 to 10000 | < 100 | 101 to 1000 | < 100
14 | O=C(c1ccc(NS(=O)(=O)c2cccc(Cl)c2Cl)cc1)N1CCC(O)(Cc2ccccc2)CC1 [Compound 237, N-(4-(4-benzyl-4-hydroxypiperidine-1-carbonyl)phenyl)-2,3-dichlorobenzenesulfonamide] | 101 to 1000 | 101 to 1000 | 101 to 1000 | 101 to 1000
15 | O=C(c1ccc(NS(=O)(=O)c2cccc3nccnc23)cc1)N1CCC(O)(c2ccccc2)CC1 [Compound 243, N-(4-(4-hydroxy-4-phenylpiperidine-1-carbonyl)phenyl)quinoxaline-5-sulfonamide] | 1010 to 10000 | < 100 | 101 to 1000 | 101 to 1000
16 | O=C(c1ccc(NS(=O)(=O)c2cccc3cccnc23)cc1)N1CCC(O)(c2cccc(OC(F)(F)F)c2)CC1 [Compound 245, N-(4-(4-hydroxy-4-(3-(trifluoromethoxy)phenyl)piperidine-1-carbonyl)phenyl)quinoline-8-sulfonamide] | 1010 to 10000 | 1010 to 10000 | 101 to 1000 | 101 to 1000

The remaining lines, values ahead:

Row | AC50 (PKR R510Q) [nM] | AC50 (PKR WT [1]) [nM] | AC50 (PKR WT [2]) [nM] | AC50 (PKR R532W) [nM] | SMILES
17 | 101 to 1000 | < 100 | < 100 | < 100 | CC(C)CC1(O)CCN(C(=O)c2ccc(NS(=O)(=O)c3ccc(F)c4cccnc34)cc2)CC1 [Compound 203, 5-fluoro-N-(4-(4-hydroxy-4-isobutylpiperidine-1-carbonyl)phenyl)quinoline-8-sulfonamide]
18 | 101 to 1000 | < 100 | < 100 | < 100 | O=C(c1ccc(NS(=O)(=O)c2cccc3cccnc23)cc1)N1CCC(O)(CCC(F)F)CC1 [Compound 204, N-(4-(4-(3,3-difluoropropyl)-4-hydroxypiperidine-1-carbonyl)phenyl)quinoline-8-sulfonamide]
19 | 101 to 1000 | 101 to 1000 | < 100 | < 100 | Cc1cccc(CC2(O)CCN(C(=O)c3ccc(NS(=O)(=O)c4cccc5cccnc45)cc3)CC2)n1 [Compound 207, N-(4-(4-hydroxy-4-((6-methylpyridin-2-yl)methyl)piperidine-1-carbonyl)phenyl)quinoline-8-sulfonamide]
20 | 101 to 1000 | < 100 | < 100 | < 100 | CC(C)CC1(O)CCN(C(=O)c2ccc(NS(=O)(=O)c3cccc4nccnc34)cc2OC(F)F)CC1 [Compound 213, N-(3-(difluoromethoxy)-4-(4-hydroxy-4-isobutylpiperidine-1-carbonyl)phenyl)quinoxaline-5-sulfonamide]
21 | 101 to 1000 | < 100 | < 100 | < 100 | CC(C)C1(O)CCN(C(=O)c2ccc(NS(=O)(=O)c3cccc4cccnc34)cc2)CC1 [Compound 214, N-(4-(4-hydroxy-4-isopropylpiperidine-1-carbonyl)phenyl)quinoline-8-sulfonamide]
22 | 101 to 1000 | 101 to 1000 | < 100 | 101 to 1000 | O=C(c1ccc(NS(=O)(=O)c2cccc3cccnc23)cc1)N1CCC(O)(c2cccnc2F)CC1 [Compound 217, N-(4-(4-(2-fluoropyridin-3-yl)-4-hydroxypiperidine-1-carbonyl)phenyl)quinoline-8-sulfonamide]
23 | 101 to 1000 | 101 to 1000 | < 100 | 101 to 1000 | COCCC1(O)CCN(C(=O)c2ccc(NS(=O)(=O)c3cccc4cccnc34)cc2)CC1 [Compound 225, N-[4-[4-hydroxy-4-(2-methoxyethyl)piperidine-1-carbonyl]phenyl]quinoline-8-sulfonamide]
24 | 101 to 1000 | 101 to 1000 | 101 to 1000 | 101 to 1000 | Cc1nc(F)ccc1C1(O)CCN(C(=O)c2ccc(NS(=O)(=O)c3ccc(F)c4cccnc34)cc2)CC1 [Compound 229, 5-fluoro-N-(4-(4-(6-fluoro-2-methylpyridin-3-yl)-4-hydroxypiperidine-1-carbonyl)phenyl)quinoline-8-sulfonamide]
25 | 1010 to 10000 | 101 to 1000 | 101 to 1000 | 101 to 1000 | CC(C)(O)CC1(O)CCN(C(=O)c2ccc(NS(=O)(=O)c3cccc4cccnc34)cc2)CC1 [Compound 241, N-(4-(4-hydroxy-4-(2-hydroxy-2-methylpropyl)piperidine-1-carbonyl)phenyl)quinoline-8-sulfonamide]
26 | 1010 to 10000 | 1010 to 10000 | 101 to 1000 | 101 to 1000 | CCOC(=O)C1(CC(C)C)CCN(C(=O)c2ccc(NS(=O)(=O)c3cccc4cccnc34)cc2)CC1 [Compound 250, Ethyl 4-isobutyl-1-(4-(quinoline-8-sulfonamido)benzoyl)piperidine-4-carboxylate]
27 | 1010 to 10000 | 1010 to 10000 | 101 to 1000 | 101 to 1000 | O=C(c1ccc(NS(=O)(=O)c2cccc3cccnc23)cc1)N1CCC(O)(C2CC2)CC1 [Compound 260, N-(4-(4-cyclopropyl-4-hydroxypiperidine-1-carbonyl)phenyl)quinoline-8-sulfonamide]

— patent US9108921B2, “Therapeutic compounds and compositions” (AGIOS PHARMACEUTICALS, INC, priority 2014, dated 2015)
